# Data from patent US5328913A, “Minoxidil analogs as inhibitors of cell proliferation and lysyl hydroxylase” (priority 1992, dated 1994).
# “Also recorded” adds a separate entry of the source.
# Assays:
# Format in all cases: cell-based
# lysyl hydroxylase [1] = test: Lysyl hydroxylase activity in extracts of treated human skin fibroblasts (Example 1, tritium-release assay); details: for Lysyl hydroxylase activity (%) / effect on lysyl hydroxylase activity (in words): 72 h; for Lysyl hydroxylase activity (%): 1% ethanol; for effect on lysyl hydroxylase activity (in words): cultured fibroblasts, Example 1; for increase of the level of lysyl hydroxylase activity: 72 h (Table I text)
# Description: (§1) Cultures of human skin fibroblasts grown to confluence were incubated for 72 h in medium supplemented with 1% ethanol containing various concentrations of minoxidil or deoxyminoxidil as indicated. Cells were then harvested, and the enzyme activities in extracts of these cells were measured by tritium-release assays (Murad and Pinnell, J. Biol. Chem. 262:11,973 (1987)). The results are expressed as percentages of zero-concentration values.
# as §1, with “with 1% acetone containing various concentrations of minoxidil sulfate,” for “deoxyminoxidil”, “tritium release” for “tritium-release”
# Skin fibroblast cultures derived from an apparently normal child (GM05659) were obtained from the Institute for Medical Research, Camden, N.J. The cells were subcultured by trypsinization and used before 25 population doublings. Typically, 4×10^5 cells were seeded onto 100-mm (diameter) plastic petri dishes and allowed to grow in 10 ml of Dulbecco's modified Eagle's minimum essential medium containing 5.6 mM glucose, buffered in pH 7.4 with 24 mM sodium biocarbonate/25 mM Hepes and supplemented with 20% (v/v) calf serum which had been inactivated for 30 min at 56° C. The cells were incubated at 37° C. in a humidified atmosphere of 5% CO2 plus 95% air.
# After a week, the medium was replaced with medium supplemented with 0.5% heat-inactivated diaylzed calf serum, and the incubation was continued for 72 h in the presence of minoxidil or one of its structural analogs. The compounds were dissolved in 95% ethanol, except minoxidil sulfate which was dissolved in acetone; the final solvent concentration was 1% (v/v). During the last 3 h of incubation, cells received 100 μM Na L-ascorbate to ensure complete hydroxylation of the polypeptide precursors of precollagen (Murad et al, J. Invest. Dermatol. 75:404 (1980)).
# The medium was then removed and the cells were washed twice with a solution containing 0.14 M NaCl, 5 mM KCl, 0.3 mM Na2 PO4, and 0.4 mM KH2 PO4, adjusted to pH 7.4. The cells were detached from the plates with a solution containing 0.05% trypsin, 0.54 mM EDTA, 5.5mM glucose, 6.90mM NaHCO3, […], and 5 mM KCl. The trypsinization was terminated with 2 vol of 20% serum-supplemented medium, and the cell number in an aliquot of the suspension was determined using a Coulter counter.
# The detached cells were collected by centrifugation at 500g for 6 min at 4° C. washed twice by suspending in phosphate-buffered NaCl/KCl as above, and then centrifuged. The cell pellet was suspended in a medium (1 ml/5×10^6 cells) containing 0.2 M NaCl, 0.1 M glycine, 50 μM dithiothreitol, 20 mM Tris-HCl, buffer (pH 7.5), 0.1% Triton X-100, and 0.01% soybean trypsin inhibitor. The suspension was sonicated for 30 s using a Branson sonifier cell disrupter. The lysate was centrifuged at 27,000g for 1 h at 4° C., and the resulting supernatant was used for prolyl and lysyl hydroxylase assays (Murad and Pinnell, J. Biol. Chem. 262:11, 973 (1987)). The enzyme activities are based on a unit of soluble cell protein.
# The protein content of cell extracts was determined by a dye-binding technique using Bio-Rad reagent and protein standard (Bradford, Anal. Biochem. 72:248 (1976)).
# Note: Cultures of human skin fibroblasts grown to confluence were
# incubated for 72 h in medium supplemented with 1% ethanol containing 1 mM
# of the indicated compounds. Cells were then harvested, and the enzyme
# activity in extracts of these cells was measured by a tritiumrelease
# incubated for 72 h in medium supplemented with 1% ethanol containing 1 nM
# lysyl hydroxylase [2] = test: as above
# lysyl hydroxylase [3] = test: Lysyl hydroxylase activity in extracts of treated human skin fibroblasts (Example 2, pyridine, triazine and N-alkyl analogs); details: for IC50: 72 hr (FIG. 4, FIG. 5), read-out: concentration giving 50% inhibition (lysyl hydroxylase)
# Description: (§2) Cells were treated for 72 hr with minoxidil or its triazine analog at the indicated concentrations. The enzyme activities in extracts of treated cells were measured by tritium release assays (Murad and Pinnell, J. Biol. Chem. 262:11,973 (1987)) and are expressed as a percentage of zero-concentration values. PH, prolyl hydroxylase; LH, lysyl hydroxylase.
# Cells were treated for 72 hr with various concentrations of minoxidil or its N-alkyl analogs as indicated. The enzyme activity in extracts of treated cells was measured by tritium release assays (Murad and Pinnell, J. Biol. Chem. 262:11,973 (1987)) and is expressed as a percentage of zero-concentration value. The minoxidil curve is reproduced from FIG. 4.
# Cultures of human skin fibroblast (1.5×10^6 cells) were seeded onto 100-mm plates and incubated at 37° in Dulbecco's modified Eagle's medium supplemented with 20% calf serum. After 24 hr, the medium was replaced with medium supplemented with 0.5% heat-inactivated dialyzed calf serum. The incubation was continued for an additional 72 hr in the presence of 0.1-2 μM minoxidil analogs dissolved in 0.12N HCl; the final concentration of HCl was 0.0012N or 0.0024N. Cells treated with HCl only served as control. During the last 3 hr of incubation, cells received […] ascorbic acid to ensure complete hydroxylation of the polypeptide precursors of procollagen (Murad et al, J. Invest. Dermatol. 75:404 (1980)). At the end of the incubation period, cells were harvested by trypsinization and disrupted by sonication in a buffered medium (Murad et al, J. Biol. Chem. 262:11,973 (1987)).
# (§3) Lysyl hydroxylase activity in extracts of treated cells was measured with an underhydroxylated procollagen substrate (Murad et al, J. Biol. Chem. 262:11,973 (1987)), which was prepared by labeling cultures of human skin fibroblasts with L-[4,5-^3 H]lysine in the presence of an iron chelator α,α'-dipyridyl (Murad and Pinnell, Conn. Tiss. Res. 13:181 (1985)). The amount of tritium released was quantitated as ^3 HO after vacuum distillation . Prolyl hydroxylase activity was similarly measured with an underhydroxylated procollagen substrate containing L-[4-^3 H]proline (Murad and Pinnell, J. Biol. Chem. 262:11973 (1987); Murad and Pinnell, Conn. Tiss. Res. 13:181 (1985)). The enzyme activities are based on a unit of soluble cell protein. The protein content of cell extracts was determined by a dye-binding techniques using Bio-Rad reagents (Bradford, Anal. Biochem. 72:248 (1976)).
# Cells were treated for 72 hr with 1 mM minoxidil or its
# structural analogs as indicated. The enzyme activity in extracts
# of treated cells was measured by a tritium-release assay and is
# expressed as a percentage of HCl-treated control.
# prolyl hydroxylase = test: Prolyl hydroxylase activity in extracts of treated human skin fibroblasts (Example 2); details: 72 hr; N,N-diethyl analog up to 2 mM
# Description: as §2
# Cultures of human skin fibroblast (1.5×10^6 cells) were seeded onto 100-mm plates and incubated at 37° in Dulbecco's modified Eagle's medium supplemented with 20% calf serum. After 24 hr, the medium was replaced with medium supplemented with 0.5% heat-inactivated dialyzed calf serum. […] Cells treated with HCl only served as control. […]
# as §3, with “The enzyme activities are based on a unit of soluble cell protein. The protein content of cell extracts was determined by a dye-binding techniques using Bio-Rad reagents (Bradford, Anal. Biochem. 72:248 (1976)).” left out
# [4] = 1 nM, % of ethanol-treated controls (Table II)
# [5] = 1 mM, % of solvent-treated controls (Table I)
smiles,measurement,setting,value
Cc1cc(N2CCCC2)nc(N)[n+]1[O-] [Compound VII (Table II)],Lysyl hydroxylase activity (%),lysyl hydroxylase [1]; [4],88%
same,effect on lysyl hydroxylase activity (in words),lysyl hydroxylase [1],inactive
CN1CCN(c2cc(N)[n+]([O-])c(N)n2)CC1 [Compound IX (Table II)],effect on lysyl hydroxylase activity (in words),lysyl hydroxylase [1],inactive
same,Lysyl hydroxylase activity (%),"lysyl hydroxylase [2]; 0.1 mM, dissolved in HCl, final concentration 0.0012 N, 72 h (Table II footnote a)",109%
CCN(CC)c1cc(N)[n+]([O-])c(N)n1 [Compound III (Table III)],IC50,lysyl hydroxylase [3],~1000 µM
same,effect on prolyl hydroxylase activity (in words),prolyl hydroxylase,no significant effect on prolyl hydroxylase activity
Nc1[nH]c(=O)c2nc[nH]c2[n+]1[O-] [Guanine 3-N-oxide],increase of the level of lysyl hydroxylase activity,lysyl hydroxylase [1],30-40%
same,Lysyl hydroxylase activity (%),"lysyl hydroxylase [2]; 1 mM, dissolved in NaOH, final concentration 0.001 N, 72 h, % of solvent-treated controls (Table I)",132%
[O-][n+]1cccc(O)c1 [3-Hydroxypyridine-N-oxide],Lysyl hydroxylase activity (%),lysyl hydroxylase [1]; [5],99%
Cc1cc(N2CCOCC2)nc(N)[n+]1[O-] [Compound VIII (Table II)],Lysyl hydroxylase activity (%),lysyl hydroxylase [1]; [4],91%
same,effect on lysyl hydroxylase activity (in words),lysyl hydroxylase [1],inactive
"CC1(C)CCC=[N+]1[O-] [5,5-Dimethyl-1-pyrroline-N-oxide]",Lysyl hydroxylase activity (%),lysyl hydroxylase [1]; [5],103%
"CC1(C)CC(O)CC(C)(C)N1[O] [4-Hydroxy-2,2,6,6-tetramethylpiperidine-N-oxyl]",Lysyl hydroxylase activity (%),lysyl hydroxylase [1]; [5],130%
same,increase of the level of lysyl hydroxylase activity,lysyl hydroxylase [1],30-40%
Cc1c([N+](=O)[O-])c(N2CCCCC2)nc(N)[n+]1[O-] [Compound VI (Table II)],Lysyl hydroxylase activity (%),lysyl hydroxylase [1]; [4],34%
same,effect on lysyl hydroxylase activity (in words),lysyl hydroxylase [1],no significant effect on its inhibitory activity
Nc1nc(N2CCCCC2)nc(N)[n+]1[O-] [Compound II (Table III)],IC50,lysyl hydroxylase [3],~800 µM
same,effect on lysyl hydroxylase activity (in words),"lysyl hydroxylase [3]; 72 hr, Example 2, listed as triazine analog",no significant effect up to 0.2 mM; also recorded: less potent than minoxidil
same,effect on prolyl hydroxylase activity (in words),prolyl hydroxylase,failure to decrease the activity of prolyl hydroxylase
O=C(O)c1cc[n+]([O-])cc1 [Isonicotinic acid N-oxide],Lysyl hydroxylase activity (%),"lysyl hydroxylase [2]; 1 mM, dissolved in aqueous medium, 72 h, % of solvent-treated controls (Table I)",90%
[O-][n+]1ccc(-c2ccccc2)cc1 [4-Phenylpyridine-N-oxide],Lysyl hydroxylase activity (%),"lysyl hydroxylase [2]; 0.3 mM, dissolved in ethanol, final concentration 0.3%, 72 h, % of solvent-treated controls (Table I)",99%
